The test system of one data set is chronic scalp dermatitis. Briefly: Topical treatment of chronic scalp dermatitis (Subject 3). In kind it is in vivo, human. The note with it: past treatment of the scalp with clobetasol 0.05% solution. The protocol:
A topical composition of the present invention, referred to herein as Composition 1, comprising as active ingredients Albizzia lebbeck (1%), schisandra chinensis (0.1%), and ophiopogon japonicus (2%), as well as petrolatum, water, glycerin, sodium hyaluronate, dimethicone, glyceryl stearate, acrylates, disodium EDTA, capric triglyceride, propanediol, phenoxyethanol, and triethanolamine, was prepared and administered to subjects as follows:
Subject 3 suffered from chronic scalp dermatitis characterized by persistent severe itching and scaling of the scalp. […] Untreated areas were persistently itchy and scaly.

In another data set the test system is chronic eyelid eczema. As to the kind of experiment: Topical treatment of chronic eyelid eczema (Subject 1). In kind it is in vivo, human. Particulars: previously treated with emollients and hydrocortisone. As for the experimental part: A topical composition of the present invention, referred to herein as Composition 1, comprising as active ingredients Albizzia lebbeck (1%), schisandra chinensis (0.1%), and ophiopogon japonicus (2%), as well as petrolatum, water, glycerin, sodium hyaluronate, dimethicone, glyceryl stearate, acrylates, disodium EDTA, capric triglyceride, propanediol, phenoxyethanol, and triethanolamine, was prepared and administered to subjects as follows: Subject 1 suffered from chronic eyelid eczema characterized by persistent severe itching and scaling of the eyelids.

Structures are written as SMILES.

Take `C[C@H]1C[C@H]2[C@@H]3CCC4=CC(=O)C=C[C@]4(C)[C@@]3(F)[C@@H](O)C[C@]2(C)[C@@]1(O)C(=O)CCl` [clobetasol]: the adverse side effects entry with chronic scalp dermatitis was “adverse side effects including acne and skin atrophy”.

Consider `C[C@]12CCC(=O)C=C1CC[C@@H]1[C@@H]2[C@@H](O)C[C@@]2(C)[C@H]1CC[C@]2(O)C(=O)CO` [hydrocortisone], for which, in the data set with chronic eyelid eczema, the “improvement with previous treatment” value is on record as “minimal improvement”.

For the origin of these results see US20150297652A1, “COMPOSITIONS AND METHODS FOR THEIR DERMATOLOGICAL USE” (VITA NATURALE, LLC, priority 2012, published 2015).
